Test results taken from PubChem BioAssay (NCI).
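Dose response: 5 concentrations. Exposure: 48 h. Format: 96-well plates. Endpoint: linear interpolation; highest concentration if not reached. GI50: concentration for 50% inhibition of growth. TGI: total growth inhibition.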

Tests used:
Experiment in all cases: growth of human tumour cells (NCI), 48 h
[1] = test system: SK-MEL-28 melanoma
[2] = test system: DU-145 prostate
[3] = test system: SW-620 colon
[4] = test system: NCI-H522 lung
[5] = test system: COLO 205 colon
[6] = test system: HS 578T breast
[7] = test system: OVCAR-8 ovarian
[8] = test system: SF-539 CNS
[9] = test system: UO-31 renal
[10] = test system: LOX IMVI melanoma
[11] = test system: A498 renal
[12] = test system: HL-60(TB) leukemia
[13] = test system: MDA-MB-435
[14] = test system: NCI-H460 lung
[15] = test system: OVCAR-3 ovarian
[16] = test system: SK-MEL-2 melanoma
[17] = test system: SNB-75 CNS
[18] = test system: A549 NSCLC
[19] = test system: 786-0 renal
[20] = test system: NCI-H226 lung
[21] = test system: KM12 colon
[22] = test system: MCF7 breast
[23] = test system: RPMI-8226 leukemia
[24] = test system: MALME-3M melanoma
[25] = test system: IGROV1 ovarian
[26] = test system: SN12C renal
[27] = test system: BT-549 breast
[28] = test system: HOP-92 NSCLC
[29] = test system: SK-OV-3 ovarian
[30] = test system: PC-3 prostate
[31] = test system: CCRF-CEM leukemia
[32] = test system: SF-295 CNS
[33] = test system: U251 CNS
[34] = test system: HCT-15 colon
[35] = test system: HOP-62 NSCLC
[36] = test system: MDA-MB-231 breast
[37] = test system: NCI-H23 lung
[38] = test system: ACHN renal
[39] = test system: T-47D breast
[40] = test system: SF-268 CNS
[41] = test system: TK-10 renal
[42] = test system: UACC-62 melanoma
[43] = test system: HT29 colon
[44] = test system: SNB-19 CNS
[45] = test system: M14 melanoma
[46] = test system: UACC-257 melanoma
[47] = test system: CAKI-1 renal
[48] = test system: NCI/ADR-RES ovarian
[49] = test system: SK-MEL-5 melanoma
[50] = test system: HCC-2998 colon
[51] = test system: HCT-116 colon
[52] = test system: OVCAR-4 ovarian
[53] = test system: SR leukemia
[54] = test system: OVCAR-5 ovarian
[55] = test system: EKVX NSCLC
[56] = test system: MOLT-4 leukemia

Question: For CO[C@H]1/C=C/C[C@H](C)[C@@H](C)S(=O)(=O)NC(=O)c2ccc3c(c2)N(C[C@@H]2CC[C@H]21)C[C@@]1(CCCc2cc(Cl)ccc21)CO3, which GI50 [1] is on record?
Answer: 2.61 µM

Question: What about the TGI [1] of the same compound?
Answer: 8.04 µM

Question: And the GI50 [2]?
Answer: 4.56 µM

Question: And the TGI [2]?
Answer: 15.3 µM

Question: What about the GI50 [3] of the same compound?
Answer: 2.84 µM

Question: And the TGI [3]?
Answer: 10.3 µM

Question: And the GI50 [4]?
Answer: 1.39 µM

Question: What about the TGI [4] of the same compound?
Answer: 3.3 µM

Question: And the GI50 [5]?
Answer: 2.7 µM

Question: And the TGI [5]?
Answer: 6.6 µM

Question: And the GI50 [6]?
Answer: 1.54 µM

Question: And the TGI [6]?
Answer: 7.24 µM

Question: What about the GI50 [7] of the same compound?
Answer: 3.72 µM

Question: What about the TGI [7] of the same compound?
Answer: 14.4 µM

Question: What about the GI50 [8] of the same compound?
Answer: 1.85 µM

Question: What about the TGI [8] of the same compound?
Answer: 4.55 µM

Question: What about the GI50 [9] of the same compound?
Answer: 3.19 µM

Question: And the TGI [9]?
Answer: 11.1 µM

Question: And the GI50 [10]?
Answer: 1.84 µM

Question: What about the TGI [10] of the same compound?
Answer: 3.41 µM

Question: And the GI50 [11]?
Answer: 1.45 µM

Question: And the TGI [11]?
Answer: 3.47 µM

Question: And the GI50 [12]?
Answer: 0.246 µM

Question: What about the TGI [12] of the same compound?
Answer: 0.655 µM

Question: And the GI50 [13]?
Answer: 1.48 µM

Question: And the TGI [13]?
Answer: 3.14 µM

Question: And the GI50 [14]?
Answer: 1.99 µM

Question: What about the TGI [14] of the same compound?
Answer: 4.17 µM

Question: And the GI50 [15]?
Answer: 1.9 µM

Question: What about the TGI [15] of the same compound?
Answer: 3.75 µM

Question: And the GI50 [16]?
Answer: 0.321 µM

Question: And the TGI [16]?
Answer: 1.43 µM

Question: What about the GI50 [17] of the same compound?
Answer: 1.34 µM

Question: And the TGI [17]?
Answer: 3.03 µM

Question: And the GI50 [18]?
Answer: 3.29 µM

Question: What about the TGI [18] of the same compound?
Answer: 12.7 µM

Question: And the GI50 [19]?
Answer: 2.9 µM

Question: What about the TGI [19] of the same compound?
Answer: 8.27 µM

Question: And the GI50 [20]?
Answer: 2.66 µM

Question: What about the TGI [20] of the same compound?
Answer: 7.4 µM

Question: And the GI50 [21]?
Answer: 3.17 µM

Question: And the TGI [21]?
Answer: 11 µM

Question: What about the GI50 [22] of the same compound?
Answer: 1.43 µM

Question: And the TGI [22]?
Answer: 9.77 µM

Question: And the GI50 [23]?
Answer: 0.132 µM

Question: And the TGI [23]?
Answer: 0.534 µM

Question: What about the GI50 [24] of the same compound?
Answer: 1.97 µM

Question: What about the TGI [24] of the same compound?
Answer: 4.14 µM

Question: What about the GI50 [25] of the same compound?
Answer: 3.08 µM

Question: And the TGI [25]?
Answer: 10.6 µM

Question: What about the GI50 [26] of the same compound?
Answer: 2.37 µM

Question: And the TGI [26]?
Answer: 6.63 µM

Question: And the GI50 [27]?
Answer: 2.23 µM

Question: And the TGI [27]?
Answer: 6.99 µM

Question: And the GI50 [28]?
Answer: 1.55 µM

Question: And the TGI [28]?
Answer: 3.4 µM

Question: And the GI50 [29]?
Answer: 3.5 µM

Question: And the TGI [29]?
Answer: 12.6 µM

Question: And the GI50 [30]?
Answer: 1.98 µM

Question: And the TGI [30]?
Answer: 6.23 µM

Question: What about the GI50 [31] of the same compound?
Answer: 1.3 µM

Question: What about the TGI [31] of the same compound?
Answer: 5.03 µM

Question: What about the GI50 [32] of the same compound?
Answer: 1.97 µM

Question: And the TGI [32]?
Answer: 6.05 µM

Question: What about the GI50 [33] of the same compound?
Answer: 2.47 µM

Question: And the TGI [33]?
Answer: 6.86 µM

Question: What about the GI50 [34] of the same compound?
Answer: 2.54 µM

Question: What about the TGI [34] of the same compound?
Answer: 8.43 µM

Question: And the GI50 [35]?
Answer: 2.35 µM

Question: What about the TGI [35] of the same compound?
Answer: 6.2 µM

Question: And the GI50 [36]?
Answer: 2.11 µM

Question: What about the TGI [36] of the same compound?
Answer: 5.64 µM

Question: And the GI50 [37]?
Answer: 1.58 µM

Question: What about the TGI [37] of the same compound?
Answer: 4.12 µM

Question: And the GI50 [38]?
Answer: 3.39 µM

Question: What about the TGI [38] of the same compound?
Answer: 11.8 µM

Question: And the GI50 [39]?
Answer: 2.75 µM

Question: And the TGI [39]?
Answer: 10.8 µM

Question: What about the GI50 [40] of the same compound?
Answer: 3.6 µM

Question: What about the TGI [40] of the same compound?
Answer: 14 µM

Question: And the GI50 [41]?
Answer: 2.8 µM

Question: And the TGI [41]?
Answer: 11.1 µM

Question: And the GI50 [42]?
Answer: 0.659 µM

Question: What about the TGI [42] of the same compound?
Answer: 2.46 µM

Question: And the GI50 [43]?
Answer: 2.13 µM

Question: What about the TGI [43] of the same compound?
Answer: 5.16 µM

Question: What about the GI50 [44] of the same compound?
Answer: 3.45 µM

Question: And the TGI [44]?
Answer: 14.1 µM

Question: What about the GI50 [45] of the same compound?
Answer: 2.4 µM

Question: What about the TGI [45] of the same compound?
Answer: 7.31 µM

Question: And the GI50 [46]?
Answer: 2.99 µM

Question: What about the TGI [46] of the same compound?
Answer: 9.69 µM

Question: And the GI50 [47]?
Answer: 3.45 µM

Question: What about the TGI [47] of the same compound?
Answer: 12.9 µM

Question: And the GI50 [48]?
Answer: 2.23 µM

Question: What about the TGI [48] of the same compound?
Answer: 6.6 µM

Question: What about the GI50 [49] of the same compound?
Answer: 1.61 µM

Question: And the TGI [49]?
Answer: 3.15 µM

Question: What about the GI50 [50] of the same compound?
Answer: 1.65 µM

Question: And the TGI [50]?
Answer: 3.45 µM

Question: And the GI50 [51]?
Answer: 2.75 µM

Question: And the TGI [51]?
Answer: 8.35 µM

Question: What about the GI50 [52] of the same compound?
Answer: 2.46 µM

Question: And the TGI [52]?
Answer: 12.1 µM

Question: And the GI50 [53]?
Answer: 0.67 µM

Question: What about the TGI [53] of the same compound?
Answer: 12.2 µM

Question: What about the GI50 [54] of the same compound?
Answer: 2.91 µM

Question: And the TGI [54]?
Answer: 11.9 µM

Question: What about the GI50 [55] of the same compound?
Answer: 1.91 µM

Question: And the TGI [55]?
Answer: 6.76 µM

Question: And the GI50 [56]?
Answer: 1.73 µM

Question: What about the TGI [56] of the same compound?
Answer: 8.8 µM
